Assay results taken from patent US20070054353A1, “Nuclear receptor transcriptional corepressor and uses thereof” (priority 2002, published 2007).

How the values were obtained:
ERα = biological target: T1, ERα (Homo sapiens, UniProt P03372); assay: Transient transfection luciferase reporter, ERα transactivation in COS-7 cells; type: cell-based; conditions: TSA 3 μM, COS-7 cells
T1 construct: expressed in transfected cells; host or cells: COS-7
T1 sequence (P03372 1-595): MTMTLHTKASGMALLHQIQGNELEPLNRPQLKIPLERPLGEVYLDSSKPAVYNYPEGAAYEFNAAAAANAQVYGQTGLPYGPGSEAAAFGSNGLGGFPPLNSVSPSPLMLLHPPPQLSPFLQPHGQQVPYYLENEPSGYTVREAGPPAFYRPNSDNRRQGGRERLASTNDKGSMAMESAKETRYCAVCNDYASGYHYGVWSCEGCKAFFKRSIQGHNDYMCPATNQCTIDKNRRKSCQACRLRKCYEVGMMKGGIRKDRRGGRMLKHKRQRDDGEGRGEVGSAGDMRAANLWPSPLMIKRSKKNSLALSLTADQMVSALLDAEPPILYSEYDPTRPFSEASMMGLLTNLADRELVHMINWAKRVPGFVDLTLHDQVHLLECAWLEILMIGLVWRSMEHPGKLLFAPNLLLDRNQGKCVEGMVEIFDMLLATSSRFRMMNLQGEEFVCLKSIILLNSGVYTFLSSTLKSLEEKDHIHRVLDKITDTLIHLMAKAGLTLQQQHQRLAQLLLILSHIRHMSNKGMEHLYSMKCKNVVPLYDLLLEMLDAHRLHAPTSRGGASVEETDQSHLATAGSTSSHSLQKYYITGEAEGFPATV
Protocol: (§1) All cell lines were cultured under the recommended conditions. COS-7 cells grown in […] in DMEM without phenol red, supplemented with 10% FBS were transfected in medium without serum with lipofectamine 2000 (Invitrogen, Burlington, Ont.) with 100 ng of nuclear receptor expression vectors as indicated, 200 ng of TIF-2 or TIF-2.1, as indicated, 250 ng of reporter plasmid, 250 ng of infemal control vector pCMV-βgal, and various concentrations of LCoR/pSG5 or LCoR-LSKAA/pSG5 expression vectors and pSG5 carrier. Medium was replaced 24 h after transfection by a medium containing charcoal-stripped serum and ligand (100 nM) and TSA (3 μM) for 18 h, as indicated. Cells were harvested in 200 […] of reporter lysis buffer (Promega).
(§2) COS-7 cells were cotransfected with expression vectors for ERα HEG0 (A and C) or GR (D) or PR (F) or VDR (H), ERE3-TATA-pXP2 (A and C), GRE5/pXP2 (D and F) or VDRE3tk/pXP2 (H) luciferase reporter vectors, pCMV-β-gal as internal control, and LCoR/pSG5 or LSKAA/pSG5 expression vectors as indicated. Cells were treated with 10^−7M of hormones (solid bars) or vehicle (open bars). Normalized luciferase activities (RLU) are the means±SEM from at least 3 experiments. […] Cells were transfected as in FIG. 5A with LCoR, TIF-2 or TIF2.1 as indicated. […]

GR = biological target: T2, GR (Homo sapiens, UniProt P04150); assay: Transient transfection luciferase reporter, GR transactivation in COS-7 cells; type: cell-based; conditions: TSA 3 μM, COS-7 cells
T2 construct: expressed in transfected cells; host or cells: COS-7
T2 sequence (P04150 1-777): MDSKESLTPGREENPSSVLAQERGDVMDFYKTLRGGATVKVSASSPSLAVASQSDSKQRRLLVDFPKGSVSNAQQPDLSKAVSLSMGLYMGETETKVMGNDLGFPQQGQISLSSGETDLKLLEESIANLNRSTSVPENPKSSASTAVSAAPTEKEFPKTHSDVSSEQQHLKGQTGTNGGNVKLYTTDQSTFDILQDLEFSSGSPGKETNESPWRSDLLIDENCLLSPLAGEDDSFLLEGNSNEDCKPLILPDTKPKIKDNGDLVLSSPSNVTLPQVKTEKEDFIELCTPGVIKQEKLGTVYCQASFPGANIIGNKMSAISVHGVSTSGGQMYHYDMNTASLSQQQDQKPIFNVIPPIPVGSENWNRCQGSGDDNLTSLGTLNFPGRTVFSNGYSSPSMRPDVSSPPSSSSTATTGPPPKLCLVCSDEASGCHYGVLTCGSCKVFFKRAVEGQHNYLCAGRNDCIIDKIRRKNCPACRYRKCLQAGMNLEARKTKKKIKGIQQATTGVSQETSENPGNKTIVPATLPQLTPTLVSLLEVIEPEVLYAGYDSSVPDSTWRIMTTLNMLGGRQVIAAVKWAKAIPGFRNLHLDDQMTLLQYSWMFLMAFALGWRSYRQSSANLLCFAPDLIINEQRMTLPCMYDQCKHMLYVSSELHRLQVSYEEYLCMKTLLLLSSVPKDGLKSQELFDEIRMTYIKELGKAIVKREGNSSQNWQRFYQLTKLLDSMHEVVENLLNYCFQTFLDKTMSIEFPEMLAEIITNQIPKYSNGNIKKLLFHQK
Protocol: as §1, §2

CC(/C=C/C(=O)NO)=C\[C@@H](C)C(=O)c1ccc(N(C)C)cc1 [TSA, trichostatin A]
effect on LCoR-dependent repression of ERα function (ERα): completely abolished | effect on LCoR-dependent repression of GR function (GR): completely abolished
